# Test results from paper PMC3210601, “New Tetromycin Derivatives with Anti-Trypanosomal and Protease Inhibitory Activities” (Marine Drugs, 2011).
# Where “and” joins values, the source holds several entries; their conditions need not be identical. Identical values can stand only once. Like-named read-outs stand apart in the source and are kept apart here.
# How the values were obtained:
# [1] = Cytotoxicity Alamar Blue assay, 293T kidney epithelial cells; conditions: human
# [2] = test system: Trypanosoma brucei subsp. brucei; test: Anti-Trypanosoma Alamar Blue assay (trypomastigotes, strain TC 221)
# [3] = test system: Leishmania major promastigotes; test: Anti-Leishmania Alamar Blue assay (promastigotes); conditions: read-out: IC50 L. major
# [4] = target: cathepsin B (Homo sapiens, UniProt P07858); test: Fluorometric protease inhibition assay, cathepsin B; format: biochemical, mammalian; conditions: for Ki: non-time dependent, Dixon equation, corrected to zero substrate, substrate 100 μM, pH 6.2, 25 °C, read-out: CB Ki
# [5] = target: rhodesain (Trypanosoma brucei rhodesiense, UniProt Q95PM0); test: Fluorometric protease inhibition assay, rhodesain; format: biochemical, T. brucei rhodesiense; conditions: for Ki: read-out: RD Ki; for RD k2nd: time-dependent inhibition, k2nd = ki/Ki
# [6] = target: falcipain-2 (Plasmodium falciparum, UniProt Q8I6U4); test: Fluorometric protease inhibition assay, falcipain-2; format: biochemical, P. falciparum; conditions: for Ki: read-out: FP Ki; for FP k2nd: time-dependent inhibition, k2nd = ki/Ki
# [7] = target: cathepsin L (Homo sapiens, UniProt P07711); test: Fluorometric protease inhibition assay, cathepsin L; format: biochemical, mammalian; conditions: for Ki: read-out: CL Ki; for CL k2nd: time-dependent inhibition, k2nd = ki/Ki
# [8] = target: SARS-CoV PL^pro (Severe acute respiratory syndrome coronavirus, UniProt P0C6X7); test: biochemical
# [9] = mouse
# [10] = 48 h, read-out: IC50 T. brucei brucei (48 h)
# [11] = 72 h, read-out: IC50 T. brucei brucei (72 h)
# [12] = progress curves, inhibitor 0-16.7 μM (Figure 6)
# cathepsin L, sequence (P07711 114-333, species assumed): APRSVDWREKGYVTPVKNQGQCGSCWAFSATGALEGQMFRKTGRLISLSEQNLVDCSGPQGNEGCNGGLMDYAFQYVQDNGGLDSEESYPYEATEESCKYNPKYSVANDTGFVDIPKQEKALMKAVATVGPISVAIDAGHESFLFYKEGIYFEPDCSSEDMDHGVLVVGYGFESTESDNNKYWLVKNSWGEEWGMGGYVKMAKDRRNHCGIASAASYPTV
# falcipain-2, sequence (Q8I6U4 244-484): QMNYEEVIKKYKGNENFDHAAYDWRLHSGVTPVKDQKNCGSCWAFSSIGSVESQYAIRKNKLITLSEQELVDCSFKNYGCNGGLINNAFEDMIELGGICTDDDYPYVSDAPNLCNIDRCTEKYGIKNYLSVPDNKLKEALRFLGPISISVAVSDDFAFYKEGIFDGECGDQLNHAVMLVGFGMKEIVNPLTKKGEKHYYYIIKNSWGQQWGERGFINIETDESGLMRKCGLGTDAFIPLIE
# rhodesain, sequence (Q95PM0 entry or part of it): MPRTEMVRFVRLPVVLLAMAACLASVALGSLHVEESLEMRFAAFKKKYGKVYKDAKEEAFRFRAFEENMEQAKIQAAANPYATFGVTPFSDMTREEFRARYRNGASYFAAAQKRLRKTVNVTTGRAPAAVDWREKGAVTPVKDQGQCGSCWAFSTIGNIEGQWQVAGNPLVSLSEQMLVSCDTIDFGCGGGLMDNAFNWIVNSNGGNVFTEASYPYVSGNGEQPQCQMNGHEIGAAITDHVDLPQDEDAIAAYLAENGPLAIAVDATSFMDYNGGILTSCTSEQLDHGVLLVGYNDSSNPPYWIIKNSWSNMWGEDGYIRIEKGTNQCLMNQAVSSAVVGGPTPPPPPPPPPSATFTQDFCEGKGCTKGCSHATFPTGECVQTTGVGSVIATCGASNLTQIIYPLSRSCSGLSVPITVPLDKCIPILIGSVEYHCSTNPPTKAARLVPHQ
Compound,IC50 at 24 h ([1]; 293T kidney epithelial cells) [µM],"IC50 [2, 10] [µM]","IC50 [2, 11] [µM]",IC50 [3] [µM],Ki [4],"ki (rate constant of inhibition) rhodesain ([5]; Figure 8, data from two independent assays) [min⁻¹]",Ki [5] [µM],RD k2nd [5],Ki [6] [µM],FP k2nd [6],Ki [7] [µM],CL k2nd [7],Ki [8] [µM],IC50 at 24 h [1] [µM],"time dependence of inhibition, cathepsin B [4, 12]",IC50 at 24 h [9] [µM],"mode of inhibition with respect to the substrate, rhodesain ([5]; Ki determined at three different substrate concentrations)","time dependence of inhibition, rhodesain [5, 12]"
"COc1cc(C)c(C(=O)NC2C(C)OC(OC3CC(C)=CC4C3CC(C)C3/C(C)=C\CC/C(C)=C/C5(C)C=C(C(=O)O)C(C)CC56OC(=O)C(=C6O)C(=O)C43C)C(O)C2(C)O)c(O)c1 (stereo not drawn) [Compound 1, Tetromycin 1]",> 100,29.3,31.7,> 100,,,,,,,,,,,,,,
"COc1cc(C)c(C(=O)OC2C(C)OC(OC3CC(C)=CC4C3CC(C)C3/C(C)=C\CC/C(C)=C/C5(C)C=C(C(=O)O)C(C)CC56OC(=O)C(=C6O)C(=O)C43C)C(O)C2O)c(OC)c1 (stereo not drawn) [Compound 2, Tetromycin 2]",> 100,45.4,80.3,> 100,,,,,,,,,,,,,,
"COc1cc(O)cc(C)c1C(=O)OC1C(C)OC(OC2CC=C(C)C3C2CC(C)C2/C(C)=C\CC/C(C)=C/C4C=C(C(=O)O)C(C)CC45OC(=O)C(=C5O)C(=O)C32C)C(O)C1O (stereo not drawn) [Compound 3, Tetromycin 3]",33.4,26.9,30.4,36.8,0.57 ± 0.04 µM,0.042,2.1 ± 0.9,"36,600 ± 1590 M^−1 min^−1",1.65 ± 0.25,617 ± 9 M⁻¹ min⁻¹,15 ± 1.95,"14,977 ± 2005 M^−1 min^−1",,,,,,
"COc1cc(O)cc(C)c1C(=O)OC1C(C)OC(OC2CC(C)=CC3C2CC(C)C2/C(C)=C\CC/C(C)=C/C4(C)C=C(C(=O)O)C(C)CC45OC(=O)C(=C5O)C(=O)C32C)C(O)C1O (stereo not drawn) [Compound 4, Tetromycin 4]",58.6,35.9,41.6,> 100,1.6 ± 0.1 µM,,4 ± 0.3,8354 ± 1562 M⁻¹ min⁻¹,3.1 ± 0.2,1836 ± 108 M⁻¹ min⁻¹,22.4 ± 0.8,"14,700 ± 1000 M^−1 min^−1",40 ± 6.5,,,,,
"CC1=CC2(C)/C=C(\C)CC/C=C(/C)C3C(C)=CC4C(O)CCC(C)C4C3(C)C(=O)C3=C(O)C2(CC1C)OC3=O (stereo not drawn) [Compound 5, Tetromycin B]",,30.9,34.2,> 100,1.5 µM and 1.59 µM,,0.62 ± 0.03,"14,539 ± 1949 M^−1 min^−1",1.42 ± 0.01,"15,540 ± 1295 M^−1 min^−1",32.5 ± 0.05,1576 ± 413 M⁻¹ min⁻¹,69.6 ± 7.2,71.8,non-time dependent inhibition,20.2,competitive inhibition,time-dependent inhibition
